From US10980813B2, “Antifungal composition” (SEED RESEARCH INSTITUTE CO., LTD., priority 2017, dated 2021)
In brackets after ≈: the same amount, converted by molar mass.

Experiments:
Assay in all cases: Antifungal activity, MIC by disc (diffusion) method
Saccharomyces = assay type: cell-based; settings: YMG agar, 24 hr at 28° C., read-out: MIC (minimum inhibitory concentration) Saccharomyces
Description: (§1) Measurement Method of Antifungal Activity in Various Compounds
(§2) The minimum inhibitory concentration (MIC) was measured by a disc method (diffusion method). The disc method is one kind of the diffusion method, and is a method in which filter paper (disc) impregnated with an antifungal substance at a given concentration is placed on an agar medium (test plate) coated with a test bacterium and cultivated. The disc absorbs water in the medium, diffuses the antifungal substance and forms a given concentration gradient. As a result, the test bacterium forms a growth inhibition zone (circle) in the periphery of the disc, and the level of sensitivity to the antifungal substance is determined from the diameter of the inhibition circle.
(§3) Using the aforementioned method, MIC of various compounds was measured.
(§4) i: In a 100 mL flask, 20 mL of YMG or Mueller Hinton medium is produced.
(§5) ii: A loopful of the test bacterium is dissolved in the medium.
(§6) iii: The medium is cultured at 200 rpm for 24 hr in a rotary shaker set to 28° C.
(§7) i: In a 300 mL flask, 100 mL of YMG or Mueller Hinton agar medium (low melting point agar) is produced.
(§8) ii: After cooling to 37° C.-40° C., preculture medium (1 mL) is added and the mixture is agitated.
(§9) iii: The mixture is dispensed to a square petri dish (size: 100*150*17 mm) by 20 mL each.
(§10) iv: The dish is stood at room temperature until the agar is solidified.
(§11) i: The compound is diluted in ½ dilution series in 10 stages (timely changed according to compound), 50 μL of solution/pulp at each dilution stage is produced, the organic solvent is dried at room temperature and placed on a test plate.
(§12) ii: After culturing T. rubrum for 48 hr and other test bacteria for 24 hr at 28° C. in an incubator, the size of the inhibition circle was measured.
(§13) The medium composition for culture which was used for the aforementioned preculture is shown below.
(§14) [Medium Compositions for Preculture and Test Plate]
(§15) <<YMG Medium>>: For Fungus
(§16) Agar, powder 0.8% * added only when producing test plate

T. mentagrophytes = assay type: cell-based; settings: Trichophyton mentagrophytes, YMG agar, 24 hr at 28° C., read-out: MIC (minimum inhibitory concentration) T. mentagrophytes
Description: as §1, §2, §3, §4, §5, §6, §7, §8, §9, §10, §11, §12, §13, §14, §15, §16

T. rubrum = assay type: cell-based; settings: Trichophyton rubrum, YMG agar, 48 hr at 28° C., read-out: MIC (minimum inhibitory concentration) T. rubrum
Description: as §1, §2, §3, §4, §5, §6, §7, §8, §9, §10, §11, §12, §13, §14, §15, §16

A. fumigatus = assay type: cell-based; settings: Aspergillus fumigatus, YMG agar, 24 hr at 28° C., read-out: MIC (minimum inhibitory concentration) A. fumigatus
Description: as §1, §2, §3, §4, §5, §6, §7, §8, §9, §10, §11, §12, §13, §14, §15, §16

C. parapsilosis = assay type: cell-based, Candida parapsilosis; settings: Lodderomyces parapsilosis, YMG agar, 24 hr at 28° C., read-out: MIC (minimum inhibitory concentration) C. parapsilosis
Description: as §1, §2, §3, §4, §5, §6, §7, §8, §9, §10, §11, §12, §13, §14, §15, §16

Structure (SMILES) | MIC (Saccharomyces) [µg/mL] | MIC (T. mentagrophytes) [µg/mL] | MIC (T. rubrum) [µg/mL] | MIC (A. fumigatus) [µg/mL] | MIC (C. parapsilosis) [µg/mL]
O=S1(=O)N=C(c2ccccc2)c2cc(Cl)ccc2N1 [I-1l] | 8 (≈ 27.3 µM) | 2 (≈ 6.83 µM) | 2 (≈ 6.83 µM) | 8 (≈ 27.3 µM) | 8 (≈ 27.3 µM)
O=S1(=O)N=Cc2cc(F)ccc2O1 [I-1a] | 4 (≈ 19.9 µM) | 1 (≈ 4.97 µM) | 1 (≈ 4.97 µM) | 4 (≈ 19.9 µM) | 4 (≈ 19.9 µM)
CC1=CC(c2ccccc2)=NS(=O)(=O)N1 [I-2c] | 8 (≈ 36 µM) | 2 (≈ 9 µM) | 2 (≈ 9 µM) | 8 (≈ 36 µM) | 8 (≈ 36 µM)
CC1=NS(=O)(=O)OC1C (stereo not shown) [I-3a] | 4 (≈ 26.8 µM) | 2 (≈ 13.4 µM) | 2 (≈ 13.4 µM) | 4 (≈ 26.8 µM) | 4 (≈ 26.8 µM)
O=[N+]([O-])c1cc(Cl)cc2c1OS(=O)(=O)N=C2 [I-1i] | 4 (≈ 15.2 µM) | 1 (≈ 3.81 µM) | 1 (≈ 3.81 µM) | 4 (≈ 15.2 µM) | 4 (≈ 15.2 µM)
O=S1(=O)N=Cc2cc(Cl)cc(Cl)c2O1 [I-1h] | 4 (≈ 15.9 µM) | 1 (≈ 3.97 µM) | 1 (≈ 3.97 µM) | 4 (≈ 15.9 µM) | 4 (≈ 15.9 µM)
CC1=NS(=O)(=O)OC(C)=C1C [I-2a] | 8 (≈ 45.7 µM) | 2 (≈ 11.4 µM) | 2 (≈ 11.4 µM) | 8 (≈ 45.7 µM) | 8 (≈ 45.7 µM)
CCCCCCCCN1CC(c2ccccc2)=NS1(=O)=O [I-3e] | 8 (≈ 25.9 µM) | 2 (≈ 6.48 µM) | 2 (≈ 6.48 µM) | 8 (≈ 25.9 µM) | 8 (≈ 25.9 µM)
O=S1(=O)N=Cc2cc(Br)ccc2O1 [I-1c] | 4 (≈ 15.3 µM) | 1 (≈ 3.82 µM) | 1 (≈ 3.82 µM) | 4 (≈ 15.3 µM) | 4 (≈ 15.3 µM)
CCC1=NS(=O)(=O)OC1CC (stereo not shown) [I-3b] | 4 (≈ 22.6 µM) | 2 (≈ 11.3 µM) | 2 (≈ 11.3 µM) | 4 (≈ 22.6 µM) | 4 (≈ 22.6 µM)

Further lines, results first:

MIC (Saccharomyces) [µg/mL] | MIC (T. mentagrophytes) [µg/mL] | MIC (T. rubrum) [µg/mL] | MIC (A. fumigatus) [µg/mL] | MIC (C. parapsilosis) [µg/mL] | Structure (SMILES)
8 (≈ 54 µM) | 2 (≈ 13.5 µM) | 2 (≈ 13.5 µM) | 8 (≈ 54 µM) | 8 (≈ 54 µM) | CC1=NS(=O)(=O)N2OC12 (stereo not shown) [II-4a]
8 (≈ 31.7 µM) | 2 (≈ 7.93 µM) | 2 (≈ 7.93 µM) | 8 (≈ 31.7 µM) | 8 (≈ 31.7 µM) | CC1=C(C)C2(c3ccccc3)ON2S(=O)(=O)N1 (stereo not shown) [II-2d]
8 (≈ 50.9 µM) | 2 (≈ 12.7 µM) | 2 (≈ 12.7 µM) | 8 (≈ 50.9 µM) | 8 (≈ 50.9 µM) | O=S1(=O)N=Cc2nccn21 [I-5a]
8 (≈ 33.3 µM) | 2 (≈ 8.32 µM) | 2 (≈ 8.32 µM) | 8 (≈ 33.3 µM) | 8 (≈ 33.3 µM) | O=S1(=O)N=CC(CCc2ccc(F)cc2)=N1 [I-4c]
16 (≈ 109 µM) | 4 (≈ 27.4 µM) | 4 (≈ 27.4 µM) | 16 (≈ 109 µM) | 16 (≈ 109 µM) | CC1=NS(=O)(=O)N=C1C [I-4b]
4 (≈ 24.2 µM) | 2 (≈ 12.1 µM) | 2 (≈ 12.1 µM) | 4 (≈ 24.2 µM) | 4 (≈ 24.2 µM) | CC1OS(=O)(=O)N2OC12C (stereo not shown) [II-3a]
8 (≈ 31.2 µM) | 2 (≈ 7.79 µM) | 2 (≈ 7.79 µM) | 8 (≈ 31.2 µM) | 8 (≈ 31.2 µM) | O=S1(=O)N=CC(CCc2ccc(Cl)cc2)=N1 [I-4d]
4 (≈ 15.6 µM) | 1 (≈ 3.89 µM) | 1 (≈ 3.89 µM) | 4 (≈ 15.6 µM) | 4 (≈ 15.6 µM) | COC(=O)c1ccc2c(c1)C1ON1S(=O)(=O)O2 (stereo not shown) [II-1f]
4 (≈ 18.4 µM) | 1 (≈ 4.6 µM) | 1 (≈ 4.6 µM) | 4 (≈ 18.4 µM) | 4 (≈ 18.4 µM) | O=S1(=O)Oc2ccc(F)cc2C2ON21 (stereo not shown) [II-1a]
8 (≈ 33.6 µM) | 2 (≈ 8.39 µM) | 2 (≈ 8.39 µM) | 8 (≈ 33.6 µM) | 8 (≈ 33.6 µM) | CC1=CC2(c3ccccc3)ON2S(=O)(=O)N1 (stereo not shown) [II-2c]
4 (≈ 14.1 µM) | 1 (≈ 3.51 µM) | 1 (≈ 3.51 µM) | 4 (≈ 14.1 µM) | 4 (≈ 14.1 µM) | O=S1(=O)N=C2C(=COc3ccc(Cl)cc32)C2ON21 (stereo not shown) [II-6c]
8 (≈ 37.5 µM) | 2 (≈ 9.38 µM) | 2 (≈ 9.38 µM) | 8 (≈ 37.5 µM) | 8 (≈ 37.5 µM) | O=S1(=O)OCC2(c3ccccc3)ON21 (stereo not shown) [II-3c]
4 (≈ 14.4 µM) | 1 (≈ 3.6 µM) | 1 (≈ 3.6 µM) | 4 (≈ 14.4 µM) | 4 (≈ 14.4 µM) | O=S1(=O)Oc2ccc(Br)cc2C2ON21 (stereo not shown) [II-1c]
